Experimental data taken from PubChem BioAssay AID652152 (Johns Hopkins Ion Channel Center, 2013).
Activity calls are given as the source filed them. The rule behind the calls is not given here.

Target: Potassium voltage-gated channel subfamily KQT member 2 (Rattus norvegicus) (UniProt O88943)
Experiment: KCNQ2 channel inhibitors, SAR follow-up, cell-based, automated electrophysiology (AID 652152)
Settings: KCNQ2-expressing cells, automated patch-clamp current; for inhibition: at 30 µM (top of the series)

Sequence of Potassium voltage-gated channel subfamily KQT member 2 (Rattus norvegicus) (O88943 whole entry, looked up): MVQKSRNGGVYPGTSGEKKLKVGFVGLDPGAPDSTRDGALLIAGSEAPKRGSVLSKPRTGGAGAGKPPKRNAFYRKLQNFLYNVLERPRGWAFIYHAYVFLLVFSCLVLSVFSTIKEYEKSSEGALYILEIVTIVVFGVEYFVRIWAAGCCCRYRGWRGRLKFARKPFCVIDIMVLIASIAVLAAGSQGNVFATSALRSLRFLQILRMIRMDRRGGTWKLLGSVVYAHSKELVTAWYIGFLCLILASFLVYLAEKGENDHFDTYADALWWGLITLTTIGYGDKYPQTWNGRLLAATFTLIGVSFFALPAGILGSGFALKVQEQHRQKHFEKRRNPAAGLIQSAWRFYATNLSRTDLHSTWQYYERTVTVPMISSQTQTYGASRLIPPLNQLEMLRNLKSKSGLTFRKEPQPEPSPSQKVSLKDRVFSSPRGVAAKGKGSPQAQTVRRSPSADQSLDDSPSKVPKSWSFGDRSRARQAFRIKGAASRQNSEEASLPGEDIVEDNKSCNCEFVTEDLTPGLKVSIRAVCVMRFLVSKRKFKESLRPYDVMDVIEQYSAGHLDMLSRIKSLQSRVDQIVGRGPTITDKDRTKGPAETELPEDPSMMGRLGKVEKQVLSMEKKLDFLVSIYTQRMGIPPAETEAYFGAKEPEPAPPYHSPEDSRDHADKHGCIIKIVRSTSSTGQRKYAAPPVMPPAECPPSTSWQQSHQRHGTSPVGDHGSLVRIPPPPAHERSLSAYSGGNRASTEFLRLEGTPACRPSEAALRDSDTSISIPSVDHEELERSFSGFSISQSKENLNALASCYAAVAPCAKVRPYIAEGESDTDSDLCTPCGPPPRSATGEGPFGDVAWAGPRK

Compound | IC50 [µM] | inhibition
CC[C@H](C(=O)Nc1ccccc1N1CC(c2ccc(Cl)cc2)C1)c1ccccc1 | 0.89 | 
CC[C@H](C(=O)Nc1ccc(N2CCN(c3cc(C(F)(F)F)ccn3)CC2)cc1)c1ccccc1 |  | inactive
CC[C@H](C(=O)Nc1ccc(N2CC(c3ccc(Cl)cc3)C2)cc1)c1ccccc1 |  | inactive
CC[C@H](C(=O)Nc1ccc(N2CCCC(F)C2)cc1)c1ccccc1 (stereo not given in full) |  | inactive
CC[C@H](C(=O)Nc1ccc(N2CC[C@H](F)C2)cc1)c1ccccc1 | 0.12 | 
CC[C@H](C(=O)Nc1ccccc1N1CCC(F)(F)CC1)c1ccccc1 | 2.8 | 
CC[C@H](C(=O)Nc1ccccc1N1CC[C@H](F)C1)c1ccccc1 | 0.21 | 
CC[C@H](C(=O)Nc1ccc(N2CCN(c3ccncc3C)CC2)cc1)c1ccccc1 |  | inactive
CC[C@H](C(=O)Nc1ccccc1N1CCN(c2ccncc2C)CC1)c1ccccc1 | 21.2 | 
CC[C@H](C(=O)Nc1ccc(N2CCC(F)(F)CC2)cc1)c1ccccc1 | 0.75 | 
